In patent publication US11174252B2, “Heterocyclic compounds as kinase inhibitors” (priority 2018, dated 2021):
pIC50: −log10 of the molar value. Like-named read-outs stand apart in the source and are kept apart here.

How the values were obtained:
CDK4 = CDK4 (Homo sapiens (Human), UniProt P11802); assay: In vitro kinase inhibition, luminescence (ADP-Glo) with retinoblastoma substrate; assay type: biochemical
CDK6 = CDK6 (Homo sapiens (Human), UniProt Q00534); assay: biochemical; assay type: biochemical
FMS kinase = FMS kinase (Homo sapiens (Human), UniProt P07333); assay: LanthaScreen kinase assay (ATP, fluorescent-PolyGT substrate, TR-FRET); assay type: biochemical
MCF-7 = assay: Cancer cell proliferation assay, single agent; assay type: cell-based; details: Homo sapiens
DU4475 = assay: Cancer cell proliferation assay, single agent; assay type: cell-based; details: Homo sapiens
PI3Kδ kinase = PI3Kδ kinase (Homo sapiens (Human), UniProt O00329); assay: PI3Kδ kinase ADP-Glo assay (Reaction Biology Corporation)
CDK1 (cyclin B) = CDK1 (cyclin B) (Homo sapiens (Human), UniProt P06493); assay: Z'-LYTE kinase assay; assay type: biochemical
Source text: The following equations were used for Z′-LYTE™ Screening Assay Data Analysis.

CDK2 (cyclin A) = CDK2 (cyclin A) (Homo sapiens (Human), UniProt P24941); assay: Z'-LYTE kinase assay; assay type: biochemical
Protocol: IC50 values of compounds against CDK2 (cyclin A) were determined by Z'-LYTETM. […] The following equations were used for Z'-LYTETM Screening Assay Data Analysis.

[1] = MCF7, read-out: IC50 (nM) MCF-7
[2] = DU-4475, read-out: IC50 (nM) DU4475
[3] = MCF7, MCF-7 cells, treated for 24-168 hours, read-out: IC50 (nM) MCF-7
[4] = DU-4475, DU4475 cells, treated for 24-168 hours, read-out: IC50 (nM) DU4475

PI3Kδ kinase, sequence (O00329 whole entry): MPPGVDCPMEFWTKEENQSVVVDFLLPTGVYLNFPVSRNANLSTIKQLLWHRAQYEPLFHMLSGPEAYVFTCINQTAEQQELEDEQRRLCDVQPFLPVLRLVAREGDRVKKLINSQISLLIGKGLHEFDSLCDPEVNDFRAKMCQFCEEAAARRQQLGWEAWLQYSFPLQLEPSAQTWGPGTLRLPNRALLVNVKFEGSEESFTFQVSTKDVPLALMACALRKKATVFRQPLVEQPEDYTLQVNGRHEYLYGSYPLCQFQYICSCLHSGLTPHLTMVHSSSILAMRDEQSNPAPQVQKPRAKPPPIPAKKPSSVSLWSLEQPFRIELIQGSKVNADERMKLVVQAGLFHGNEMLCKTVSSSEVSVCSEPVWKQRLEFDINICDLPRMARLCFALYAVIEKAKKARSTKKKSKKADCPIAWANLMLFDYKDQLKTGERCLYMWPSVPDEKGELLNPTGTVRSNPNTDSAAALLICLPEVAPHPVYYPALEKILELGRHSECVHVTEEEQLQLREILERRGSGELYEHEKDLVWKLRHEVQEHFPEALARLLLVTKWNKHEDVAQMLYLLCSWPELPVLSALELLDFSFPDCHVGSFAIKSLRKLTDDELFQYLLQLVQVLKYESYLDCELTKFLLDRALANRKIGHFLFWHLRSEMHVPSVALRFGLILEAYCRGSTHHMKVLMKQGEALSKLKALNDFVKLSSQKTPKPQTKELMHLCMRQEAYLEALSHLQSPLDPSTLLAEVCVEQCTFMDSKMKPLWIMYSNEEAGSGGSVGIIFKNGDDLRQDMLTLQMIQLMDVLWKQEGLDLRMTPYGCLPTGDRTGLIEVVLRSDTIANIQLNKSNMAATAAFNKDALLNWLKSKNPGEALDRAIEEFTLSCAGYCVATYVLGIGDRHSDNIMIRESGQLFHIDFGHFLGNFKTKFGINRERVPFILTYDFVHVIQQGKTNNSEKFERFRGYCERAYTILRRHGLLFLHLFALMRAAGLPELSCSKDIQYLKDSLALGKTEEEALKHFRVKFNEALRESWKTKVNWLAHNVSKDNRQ
PI3Kδ kinase, sequence (P27986 whole entry partner): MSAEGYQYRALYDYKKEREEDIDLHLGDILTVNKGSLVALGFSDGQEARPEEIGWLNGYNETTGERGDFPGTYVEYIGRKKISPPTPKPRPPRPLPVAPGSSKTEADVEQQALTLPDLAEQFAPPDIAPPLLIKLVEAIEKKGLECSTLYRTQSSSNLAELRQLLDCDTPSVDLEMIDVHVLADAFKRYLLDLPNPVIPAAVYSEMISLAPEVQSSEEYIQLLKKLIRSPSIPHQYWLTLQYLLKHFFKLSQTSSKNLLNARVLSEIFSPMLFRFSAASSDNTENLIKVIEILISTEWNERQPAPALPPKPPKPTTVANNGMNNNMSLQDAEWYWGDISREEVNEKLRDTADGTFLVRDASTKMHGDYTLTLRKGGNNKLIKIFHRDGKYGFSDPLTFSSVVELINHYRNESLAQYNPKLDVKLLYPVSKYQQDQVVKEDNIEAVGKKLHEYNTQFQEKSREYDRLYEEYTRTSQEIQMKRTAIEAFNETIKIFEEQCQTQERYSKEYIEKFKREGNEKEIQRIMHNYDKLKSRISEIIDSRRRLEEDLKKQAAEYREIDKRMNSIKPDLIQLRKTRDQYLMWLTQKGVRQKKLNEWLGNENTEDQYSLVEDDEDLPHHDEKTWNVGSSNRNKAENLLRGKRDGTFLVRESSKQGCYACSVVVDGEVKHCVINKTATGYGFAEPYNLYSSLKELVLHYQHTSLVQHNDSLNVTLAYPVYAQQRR
CDK4, sequence (P11802 whole entry): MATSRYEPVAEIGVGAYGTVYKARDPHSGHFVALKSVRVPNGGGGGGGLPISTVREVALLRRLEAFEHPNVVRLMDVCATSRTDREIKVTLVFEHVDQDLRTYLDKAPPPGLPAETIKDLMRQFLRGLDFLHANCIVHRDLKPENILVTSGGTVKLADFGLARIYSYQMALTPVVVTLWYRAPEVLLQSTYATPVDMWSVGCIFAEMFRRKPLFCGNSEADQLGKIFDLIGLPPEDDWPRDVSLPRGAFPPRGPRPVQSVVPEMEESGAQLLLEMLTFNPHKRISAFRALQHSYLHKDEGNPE
CDK4, sequence (P24385 whole entry partner): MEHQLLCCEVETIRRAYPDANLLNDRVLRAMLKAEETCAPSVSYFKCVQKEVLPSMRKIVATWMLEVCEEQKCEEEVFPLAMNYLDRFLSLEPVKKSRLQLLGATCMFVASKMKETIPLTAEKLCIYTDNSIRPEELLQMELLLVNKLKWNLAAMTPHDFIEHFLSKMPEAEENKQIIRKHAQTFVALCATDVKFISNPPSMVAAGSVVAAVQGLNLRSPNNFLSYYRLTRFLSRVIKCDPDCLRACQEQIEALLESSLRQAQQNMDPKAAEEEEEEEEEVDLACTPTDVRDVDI
CDK1 (cyclin B), sequence (P06493 whole entry): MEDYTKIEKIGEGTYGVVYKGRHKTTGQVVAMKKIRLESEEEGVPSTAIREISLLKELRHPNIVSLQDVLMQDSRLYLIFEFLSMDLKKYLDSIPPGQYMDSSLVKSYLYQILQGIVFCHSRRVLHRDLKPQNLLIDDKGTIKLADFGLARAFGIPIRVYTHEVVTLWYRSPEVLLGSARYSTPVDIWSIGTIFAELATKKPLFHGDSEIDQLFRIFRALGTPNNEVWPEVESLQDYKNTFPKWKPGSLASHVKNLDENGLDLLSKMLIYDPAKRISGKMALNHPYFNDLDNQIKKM
CDK1 (cyclin B), sequence (P14635 whole entry partner): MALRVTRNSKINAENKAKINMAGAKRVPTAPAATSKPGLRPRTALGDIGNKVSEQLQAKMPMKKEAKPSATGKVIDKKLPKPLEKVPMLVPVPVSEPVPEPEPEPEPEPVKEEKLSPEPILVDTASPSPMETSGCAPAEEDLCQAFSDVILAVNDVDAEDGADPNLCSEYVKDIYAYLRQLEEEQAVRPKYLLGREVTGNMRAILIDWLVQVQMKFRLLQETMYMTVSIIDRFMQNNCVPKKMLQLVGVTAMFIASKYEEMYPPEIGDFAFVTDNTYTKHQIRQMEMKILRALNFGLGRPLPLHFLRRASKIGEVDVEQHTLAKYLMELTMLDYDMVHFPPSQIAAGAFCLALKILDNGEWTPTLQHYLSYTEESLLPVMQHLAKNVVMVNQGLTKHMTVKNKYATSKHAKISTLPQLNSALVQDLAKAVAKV
FMS kinase, sequence (P07333 20-972): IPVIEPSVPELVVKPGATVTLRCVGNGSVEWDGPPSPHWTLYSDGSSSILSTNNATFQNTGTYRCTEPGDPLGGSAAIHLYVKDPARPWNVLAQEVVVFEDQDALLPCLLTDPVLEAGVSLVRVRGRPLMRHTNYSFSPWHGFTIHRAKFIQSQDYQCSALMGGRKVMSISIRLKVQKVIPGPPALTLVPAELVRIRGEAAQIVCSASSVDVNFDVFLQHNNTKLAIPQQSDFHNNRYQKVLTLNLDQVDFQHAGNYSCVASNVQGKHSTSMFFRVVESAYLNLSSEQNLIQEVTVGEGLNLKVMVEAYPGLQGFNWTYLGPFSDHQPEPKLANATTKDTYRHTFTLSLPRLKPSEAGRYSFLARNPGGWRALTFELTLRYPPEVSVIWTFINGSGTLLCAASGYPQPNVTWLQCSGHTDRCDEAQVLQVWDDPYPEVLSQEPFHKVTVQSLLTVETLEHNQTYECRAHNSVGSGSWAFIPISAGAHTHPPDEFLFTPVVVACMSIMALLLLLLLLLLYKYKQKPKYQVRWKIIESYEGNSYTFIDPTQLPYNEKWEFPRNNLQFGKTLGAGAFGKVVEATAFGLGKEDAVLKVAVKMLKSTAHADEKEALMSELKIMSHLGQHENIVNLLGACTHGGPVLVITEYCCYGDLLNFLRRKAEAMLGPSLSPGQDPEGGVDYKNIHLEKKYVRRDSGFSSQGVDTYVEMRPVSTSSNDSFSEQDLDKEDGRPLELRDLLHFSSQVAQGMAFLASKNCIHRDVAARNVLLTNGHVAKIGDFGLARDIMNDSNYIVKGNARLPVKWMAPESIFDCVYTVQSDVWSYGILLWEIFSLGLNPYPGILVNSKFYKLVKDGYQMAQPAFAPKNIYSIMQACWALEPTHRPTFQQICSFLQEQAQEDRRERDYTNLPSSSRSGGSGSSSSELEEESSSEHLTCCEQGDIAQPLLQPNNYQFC

SMILES | pIC50 (CDK4) | pIC50 (CDK6) | pIC50 (FMS kinase) | IC50 (MCF-7; [1]) [nM] | IC50 (DU4475; [2]) [nM] | pIC50 (PI3Kδ kinase; read-out: PI3Kδ IC50) | pIC50 (PI3Kδ kinase) | IC50 (MCF-7; [3]) [nM] | pIC50 (CDK1 (cyclin B)) | pIC50 (CDK2 (cyclin A)) | IC50 (DU4475; [4]) [nM]
CN1CCC(c2ccc(Nc3ncc(F)c(-c4cc(F)c5c(c4)N(C4CCCC4)CCO5)n3)cc2F)CC1 [Compound 471, 4-(4-cyclopentyl-8-fluoro-3,4-dihydro-2H-benzo[b][1,4]oxazin-6-yl)-5-fluoro-N-(3-fluoro-4-(1-methylpiperidin-4-yl)phenyl)pyrimidin-2-amine] | 8.00 | 7.28 | 6.34 | 45 | 110 | 5.70 | – | – | – | – | –
CC(C)N1CCOc2c(F)cc(-c3nc(Nc4ccc(N5CCN(C)CC5=O)cn4)ncc3F)cc21 [Compound 472, 1-(6-((5-fluoro-4-(8-fluoro-4-isopropyl-3,4-dihydro-2H-benzo[b][1,4]oxazin-6-yl)pyrimidin-2-yl)amino)pyridin-3-yl)-4-methylpiperazin-2-one] | 8.60 | – | – | 30 | 570 | – | 4.54 | – | – | – | –
CC(C)CN1CCOc2c(F)cc(-c3nc(Nc4ccc(C5CCN(C)CC5)c(F)c4)ncc3F)cc21 [Compound 476, 5-fluoro-N-(3-fluoro-4-(1-methylpiperidin-4-yl)phenyl)-4-(8-fluoro-4-isobutyl-3,4-dihydro-2H-benzo[b][1,4]oxazin-6-yl)pyrimidin-2-amine] | 8.40 | 7.60 | 6.76 | – | 135 | 6.15 | – | 65 | – | – | –
CC(C)CN1CCOc2c(F)cc(-c3nc(Nc4ccc(C5CCN(C)CC5)cn4)ncc3F)cc21 [Compound 479, 5-fluoro-4-(8-fluoro-4-isobutyl-3,4-dihydro-2H-benzo[b][1,4]oxazin-6-yl)-N-(5-(1-methylpiperidin-4-yl)pyridin-2-yl)pyrimidin-2-amine] | 8.60 | 8.30 | 5.59 | 240 | – | – | – | – | 6.67 | 7.36 | –
CC(C)CN1CCOc2c(F)cc(-c3nc(Nc4ccc(N5CCC(N(C)C)CC5)c(F)c4)ncc3F)cc21 [Compound 480, N-(4-(4-(dimethylamino)piperidin-1-yl)-3-fluorophenyl)-5-fluoro-4-(8-fluoro-4-isobutyl-3,4-dihydro-2H-benzo[b][1,4]oxazin-6-yl)pyrimidin-2-amine] | 8.26 | 7.85 | 7.09 | 190 | 435 | 5.94 | – | – | – | – | –
OC1CCN(c2ccc(Nc3ncc(F)c(-c4cc(F)c5c(c4)N(C4CCC4)CCO5)n3)nc2)CC1 [Compound 486, 1-(6-((4-(4-cyclobutyl-8-fluoro-3,4-dihydro-2H-benzo[b][1,4]oxazin-6-yl)-5-fluoropyrimidin-2-yl)amino)pyridin-3-yl)piperidin-4-ol] | 7.80 | 7.39 | < 5.30 | 325 | 1450 | < 4.30 | – | – | – | – | –
Fc1cnc(Nc2ccc(N3CCOCC3)cn2)nc1-c1cc(F)c2c(c1)N(C1CCC1)CCO2 [Compound 487, 4-(4-cyclobutyl-8-fluoro-3,4-dihydro-2H-benzo[b][1,4]oxazin-6-yl)-5-fluoro-N-(5-morpholinopyridin-2-yl)pyrimidin-2-amine] | 7.26 | 6.95 | < 5.30 | 615 | 2170 | < 4.30 | – | – | – | – | –
CC(C)CN1CCOc2c(F)cc(-c3nc(Nc4ccc(N5CCC(O)CC5)cn4)ncc3F)cc21 [Compound 488, 1-(6-((5-fluoro-4-(8-fluoro-4-isobutyl-3,4-dihydro-2H-benzo[b][1,4]oxazin-6-yl)pyrimidin-2-yl)amino)pyridin-3-yl)piperidin-4-ol] | 7.00 | 6.70 | < 5.30 | 830 | 2560 | < 4.30 | – | – | – | – | –
CC(C)CN1CCOc2c(F)cc(-c3nc(Nc4ccc(N5CCOCC5)cn4)ncc3F)cc21 [Compound 489, 5-fluoro-4-(8-fluoro-4-isobutyl-3,4-dihydro-2H-benzo[b][1,4]oxazin-6-yl)-N-(5-morpholinopyridin-2-yl)pyrimidin-2-amine] | 7.05 | 6.80 | < 5.30 | – | 4500 | < 4.30 | – | 1820 | – | – | –
CC(C)N1CCOc2c(F)cc(-c3nc(Nc4ccc(N5CCN(CCO)CC5)cn4)ncc3F)cc21 [Compound 490, 2-(4-(6-((5-fluoro-4-(8-fluoro-4-isopropyl-3,4-dihydro-2H-benzo[b][1,4]oxazin-6-yl)pyrimidin-2-yl)amino)pyridin-3-yl)piperazin-1-yl)ethan-1-ol] | – | – | 5.67 | – | 420 | < 4.30 | – | 80 | – | – | –
CC(C)N1CCOc2c(F)cc(-c3nc(Nc4ccc(N5CCC(CCO)CC5)cn4)ncc3F)cc21 [Compound 491, 2-(1-(6-((5-fluoro-4-(8-fluoro-4-isopropyl-3,4-dihydro-2H-benzo[b][1,4]oxazin-6-yl)pyrimidin-2-yl)amino)pyridin-3-yl)piperidin-4-yl)ethan-1-ol] | – | – | 5.34 | – | – | < 4.30 | – | 465 | – | – | 450
CC(C)N1CCOc2c(F)cc(-c3nc(Nc4cc(C5CCN(C)CC5)no4)ncc3F)cc21 [Compound 495, N-(5-fluoro-4-(8-fluoro-4-isopropyl-3,4-dihydro-2H-benzo[b][1,4]oxazin-6-yl)pyrimidin-2-yl)-3-(1-methylpiperidin-4-yl)isoxazol-5-amine] | – | – | – | 110 | 310 | – | – | – | 8.30 | 8.70 | –
CC(C)N1CCOc2c(F)cc(-c3nc(Nc4cnn(C5CCN(C)CC5)c4)ncc3F)cc21 [Compound 497, 5-fluoro-4-(8-fluoro-4-isopropyl-3,4-dihydro-2H-benzo[b][1,4]oxazin-6-yl)-N-(1-(1-methylpiperidin-4-yl)-1H-pyrazol-4-yl)pyrimidin-2-amine] | – | – | – | 40 | 95 | – | – | – | 7.07 | – | –
CC(C)N1CCOc2c(F)cc(-c3nc(Nc4ccc(C5CCN(C)C5)cn4)ncc3F)cc21 (centres unmarked) [Compound 498, 5-fluoro-4-(8-fluoro-4-isopropyl-3,4-dihydro-2H-benzo[b][1,4]oxazin-6-yl)-N-(5-(1-methylpyrrolidin-3-yl)pyridin-2-yl)pyrimidin-2-amine] | 9.00 | 8.52 | – | – | – | – | – | 170 | 6.65 | 6.81 | 465
CC(C)N1CCOc2c(F)cc(-c3nc(Nc4cc(C5CCN(C)CC5)n[nH]4)ncc3F)cc21 [Compound 499, 5-fluoro-4-(8-fluoro-4-isopropyl-3,4-dihydro-2H-benzo[b][1,4]oxazin-6-yl)-N-(3-(1-methylpiperidin-4-yl)-1H-pyrazol-5-yl)pyrimidin-2-amine] | – | – | – | – | 345 | – | – | 175 | 7.16 | 7.72 | –
CC(C)N1CCOc2c(F)cc(-c3nc(Nc4ccc5c(c4)C(=O)NCC5)ncc3F)cc21 [Compound 502, 7-((5-fluoro-4-(8-fluoro-4-isopropyl-3,4-dihydro-2H-benzo[b][1,4]oxazin-6-yl)pyrimidin-2-yl)amino)-3,4-dihydroisoquinolin-1(2H)-one] | 7.92 | 7.55 | – | – | – | – | – | 435 | 7.16 | 7.13 | 405
CC(C)N1CCOc2c(F)cc(-c3nc(Nc4ccc(S(N)(=O)=O)cc4)ncc3F)cc21 [Compound 507, 4-((5-fluoro-4-(8-fluoro-4-isopropyl-3,4-dihydro-2H-benzo[b][1,4]oxazin-6-yl)pyrimidin-2-yl)amino)benzenesulfonamide] | 8.22 | 7.89 | – | – | – | – | – | < 5 | 8.89 | 8.49 | 20
Fc1cnc(Nc2ccc3c(n2)CCNC3)nc1-c1cc(F)c2c(c1)N(C1CCCC1)CCO2 [Compound 509, N-(4-(4-cyclopentyl-8-fluoro-3,4-dihydro-2H-benzo[b][1,4]oxazin-6-yl)-5-fluoropyrimidin-2-yl)-5,6,7,8-tetrahydro-1,6-naphthyridin-2-amine] | 8.30 | 8.00 | – | – | – | – | – | 1090 | 7.11 | 7.48 | 1480
CC(C)N1CCOc2c(F)cc(-c3nc(Nc4ccc(S(=O)(=O)NCCN(C)C)cc4)ncc3F)cc21 [Compound 513, N-(2-(dimethylamino)ethyl)-4-((5-fluoro-4-(8-fluoro-4-isopropyl-3,4-dihydro-2H-benzo[b][1,4]oxazin-6-yl)pyrimidin-2-yl)amino)benzenesulfonamide] | 8.70 | 8.10 | – | – | – | – | – | 17 | > 9.00 | 8.52 | 50
CC(C)N1CCOc2c(F)cc(-c3nc(Nc4ccc(N5CCC(CN)CC5)cn4)ncc3F)cc21 [Compound 518, N-(5-(4-(aminomethyl)piperidin-1-yl)pyridin-2-yl)-5-fluoro-4-(8-fluoro-4-isopropyl-3,4-dihydro-2H-benzo[b][1,4]oxazin-6-yl)pyrimidin-2-amine] | 8.40 | 7.55 | – | – | 1330 | – | – | 1020 | 5.93 | 6.25 | –
